Key:
Homo sapiens [1] = assay: Antioxidant activity against lipid peroxidation in chronic renal failure patient plasma assessed as reduction in malondialdehyde level at 2 mg/kg treated once day before night sleep by thiobarbituric acid based spectrophotometry (Rvb=2.68 +/- 0.44 umol/L); format: functional, organism-based; parameters: dose 2 mg/kg; details: TDE = time-dependent effect
Homo sapiens [2] = assay: Antioxidant activity against lipid peroxidation in chronic renal failure patient plasma assessed as malondialdehyde level at 2 mg/kg treated once day before night sleep measured after 1 month by thiobarbituric acid based spectrophotometry (Rvb=2.68 +/- 0.44 umol/L); format: functional
Homo sapiens [3] = assay: Antioxidant activity against lipid peroxidation in chronic renal failure patient plasma assessed as malondialdehyde level at 2 mg/kg treated once day before night sleep measured after 2 months by thiobarbituric acid based spectrophotometry (Rvb=2.68 +/- 0.44 umol/L); format: functional
Homo sapiens [4] = assay: Antioxidant activity against lipid peroxidation in chronic renal failure patient plasma assessed as malondialdehyde level at 2 mg/kg treated once day before night sleep measured after 3 months by thiobarbituric acid based spectrophotometry (Rvb=2.68 +/- 0.44 umol/L); format: functional

SMILES: COc1ccc2[nH]cc(CCNC(C)=O)c2c1 [MELATONIN]
- Activity (Homo sapiens [1]): tde
- Activity (Homo sapiens [2]): 4.02 µM
- Activity (Homo sapiens [3]): 3.09 µM
- Activity (Homo sapiens [4]): 2.79 µM
